Entries after “also recorded” stand apart in the source; their conditions may differ.
Tests used:
[1] = biological target: T1, FoxM1 (Homo sapiens, UniProt Q08050); assay: FoxM1-responsive firefly luciferase reporter assay in C3-Luc cells; type: cell-based; conditions: C3-Luc cells, 1 μg/mL doxycycline (60-fold induction), 5 μM compound, 24 hrs
T1 construct: expressed in transfected cells; host or cells: U2OS clone C3 / C3-Luc
T1 sequence (Q08050 1-748 isoform Q08050-2): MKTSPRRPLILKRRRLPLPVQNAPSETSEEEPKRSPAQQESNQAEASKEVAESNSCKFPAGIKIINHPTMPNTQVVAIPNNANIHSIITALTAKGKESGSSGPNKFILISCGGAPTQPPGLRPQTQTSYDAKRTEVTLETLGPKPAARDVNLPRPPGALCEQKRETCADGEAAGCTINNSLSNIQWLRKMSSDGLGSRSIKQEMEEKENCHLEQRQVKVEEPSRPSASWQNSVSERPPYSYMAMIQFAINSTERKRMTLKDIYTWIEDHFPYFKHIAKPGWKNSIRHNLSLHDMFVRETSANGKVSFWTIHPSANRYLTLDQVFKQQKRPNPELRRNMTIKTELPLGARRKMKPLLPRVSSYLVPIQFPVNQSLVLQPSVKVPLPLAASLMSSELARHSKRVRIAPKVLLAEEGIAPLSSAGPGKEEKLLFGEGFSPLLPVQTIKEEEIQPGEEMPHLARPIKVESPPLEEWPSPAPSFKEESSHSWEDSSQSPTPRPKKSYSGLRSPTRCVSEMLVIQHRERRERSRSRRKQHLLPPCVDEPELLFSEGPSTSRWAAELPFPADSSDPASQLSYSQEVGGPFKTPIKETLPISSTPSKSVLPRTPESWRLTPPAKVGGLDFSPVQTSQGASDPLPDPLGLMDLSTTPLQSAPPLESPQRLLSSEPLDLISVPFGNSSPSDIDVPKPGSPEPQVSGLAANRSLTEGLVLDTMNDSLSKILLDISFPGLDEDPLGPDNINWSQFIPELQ
Protocol: FIG. 6. Thiostrepton and Siomycin A both inhibit FoxM1 transcriptional activity. […] The next day, the luciferase activity was measured with the Dual-Luciferase reporter assay system (E1910; Promega) according to the manufacturer's instructions.
The development of U2OS clone C3 cell line with doxycyclin inducible FoxM1-GFP fusion protein has been described before (17). This cell line was transfected with a plasmid expressing firefly luciferase under the control of 6× FoxM1 responsive (FoxRE) promoter (17), along with pcDNA3.1 (Invitrogen, Carlsbad, Calif.) plasmid that expresses neomycin phospho-transferase. […] This clone was further transfected with pRL-CMV (Promega) that expresses renilla luciferase along with pLPCX-puro (Clontech), and the cells were selected in 2 μg/ml puromycin. This cell line which expresses FoxM1-dependent firefly luciferase and constitutive renilla luciferase was named as C3-Luc and used for the screening of compound libraries (Challenge set and Diversity set) from the National Cancer Institute.
For high-throughput screening, the C3-Luc cells were grown in 96-well plates and treated overnight with a combination of 1 μg/ml doxycycline and 10 μM of compounds from the library. Next day, the firefly and renilla luciferase activities were measured with the Dual Glo system (E2940; Promega).
For the other luciferase assay experiments, the cells were treated as indicated in the FIG. 1 legend and the luciferase activity was measured using the Dual Luciferase reporter assay system (E1910; Promega) according to the manufacturer's instructions.

[2] = system: Breast cancer cell lines BT-474, MDA-MB-231, T-47D and ZR-75-1; assay: FoxM1 and cleaved caspase-3 immunoblot in breast cancer cell lines; type: cell-based, human; conditions: 5 μM, 48 hrs
Protocol: FIG. 7. […] Breast cancer cell lines BT-474, MDA-MB-231, T-47D and ZR-75-1 were treated with 5 μM Siomycin and thiostrepton, respectively, for 48 hrs and the cell lysates were analyzed for the levels of FoxM1 and cleaved caspase-3 by immunoblotting.
(§1) Immunoblotting was performed as described (18-20) with antibodies specific for p21 (556431; BD Pharmingen), survivin (sc-10811; Santa Cruz), cleaved caspase-3 (9664; Cell Signaling), and β-actin (A5441; Sigma) antibodies. Immunoblot for FoxM1 was done using the previously generated rabbit antisera (2), and phospho-FoxM1 was detected using the MPM2 monoclonal antibody (Upstate Biotechnology) which recognizes the phosphorylated protein sequence phosphoserine/phosphothreonine-proline.

[3] = system: Liver cancer cell lines Huh7, Hep-3B and SK-Hep; assay: FoxM1 and cleaved caspase-3 immunoblot in liver cancer cell lines; type: cell-based, human; conditions: 10 μM, 48 hrs
Protocol: FIG. 9. […] Liver cancer cell lines Huh7, Hep-3B and SK-Hep were treated with 10 μM Siomycin A and thiostrepton, respectively, for 48 hrs, and the cell lysates were analyzed for the levels of FoxM1 and cleaved caspase-3 by immunoblotting.
as §1
First, we treated liver cancer cell lines Huh7, Hep-3B and SK-Hep that have deleted or mutant p53 with these compounds for 48 hrs, and the cell lysates were analyzed for the levels of FoxM1 and cleaved caspase-3 by immunoblotting.

[4] = system: Leukemia cell lines CEM, HL60 and U937; assay: FoxM1 and cleaved caspase-3 immunoblot in leukemia cell lines; type: cell-based, human; conditions: 5 μM, 48 hrs
Protocol: FIG. 10. […] Leukemia cell lines CEM, HL60 and U937 were treated with 5 μM Siomycin A and thiostrepton, respectively, for 48 hrs and the cell lysates were analyzed for the levels of FoxM1 and cleaved caspase-3 by immunoblotting.
as §1
Next we treated leukemia cell lines with mutant p53 CEM, HL60 and U937 with 5 μM of these compounds for 48 hrs and the cell lysates were analyzed for the levels of FoxM1 and cleaved caspase-3 by immunoblotting.

[5] = system: NB7 and NB7-casp8 neuroblastoma cells; assay: FoxM1 and cleaved caspase-3 immunoblot in neuroblastoma cells; type: cell-based; conditions: 24 hrs
Protocol: FIG. 11. […] Cells were treated with Siomycin A, thiostrepton or DMSO, harvested 24 hrs later and the lysates were used to determine proteins levels by immunoblotting with antibodies specific for FoxM1, cleaved caspase-3 and β-actin (AS441, Sigma).

C=C(NC(=O)C(=C)NC(=O)c1csc(C2=N[C@@H]3c4csc(n4)[C@H]4NC(=O)c5csc(n5)[C@H]([C@](C)(O)[C@@H](C)O)NC(=O)[C@H]5CSC(=N5)/C(=C/C)NC(=O)[C@H]([C@@H](C)O)NC(=O)c5csc(n5)[C@]3(CC2)NC(=O)[C@H](C)NC(=O)C(=C)NC(=O)[C@H](C)NC(=O)[C@H]([C@@H](C)CC)N[C@@H]2C=Cc3c([C@H](C)O)cc(nc3[C@H]2O)C(=O)O[C@@H]4C)n1)C(N)=O [thiostrepton]
relative firefly luciferase activity (FoxM1 transcriptional activity) [1]: efficiently reduced the value to basal levels | FoxM1 expression [2]: stronger inhibitor of FoxM1; also recorded: inhibit FoxM1 expression | apoptosis (cleaved caspase-3) [2]: more efficient inducer of apoptosis than Siomycin A; also recorded: induce apoptosis | FoxM1 protein expression [3]: repress FoxM1 protein expression | apoptosis (cleaved caspase-3) [3]: induce apoptosis | FoxM1 expression [4]: inhibit FoxM1 expression | apoptosis (cleaved caspase-3) [4]: induce apoptosis | apoptosis (cleaved caspase-3) ([5]; NB7 and NB7 with reconstituted caspase-8): induce apoptosis in these neuroblastoma cells independently from caspase-8 | FoxM1 protein expression ([5]; immunoblot): inhibit FoxM1 protein expression

— US8029980B2, “Identification and use of agents that modulate oncogenic transcription agent activity” (The Board of Trustees of the University of Illinois, priority 2006, dated 2011)
